Where two headings read alike, the source gives them in different places.
Assays:
[1] = Cytotoxicity in HepG2 cells, Resazurin assay; settings: human, HepG2 cells, TOX-HepG2-4 d CC50 (μM), HepG2 cells incubated for 4 days, viability by Resazurin assay
[2] = test system: HBV; experiment: anti HBV activity, HepG2.117 cell line, intracellular HBV DNA by realtime PCR; assay type: cell-based; settings: HepG2.117 cell line (Tet-off), 3 days of treatment, intracellular HBV DNA quantified by realtime PCR, read-out: HBV-AVE-HepG2.117 EC50
In short: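 HepG2.117 cells, a Tet-off line that replicates HBV without doxycycline, were induced and then treated in duplicate with serially diluted compound. After 3 days, intracellular HBV DNA was quantified by real-time PCR with an HBV-specific primer set and probe.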

[3] = Hepatitis B virus, HepG2.117, 72 h

SMILES	CC50 at 4 days [1] [µM]	EC50 [2] [nM]	EC50 [2, 3] [nM]
Cn1cc2c(c1C(=O)Nc1cc(F)c(F)c(F)c1)OCC(C)(CO)NS2(=O)=O (single isomer, unassigned) [Compound 214a, 3-(hydroxymethyl)-3,7-dimethyl-1,1-dioxo-N-(3,4,5-trifluorophenyl)-2,4-dihydropyrrolo[3,4-b][1,4,5]oxathiazepine-6-carboxamide]	> 25	120	
Cn1cc2c(c1C(=O)Nc1ccc(F)c(C(F)F)c1)OC[C@H](C(O)C1CC1)NS2(=O)=O (stereo partly drawn) [Compound 115a, (3R)-3-[cyclopropyl(hydroxy)methyl]-N-[3-(difluoromethyl)-4-fluoro-phenyl]-7-methyl-1,1-dioxo-3,4-dihydro-2H-pyrrolo[3,4-b][1,4,5]oxathiazepine-6-carboxamide]	> 25		8
Cn1cc2c(c1C(=O)Nc1ccc(F)c(C#N)c1)OCCNS2(=O)=O [Compound 91, N-(3-cyano-4-fluoro-phenyl)-7-methyl-1,1-dioxo-3,4-dihydro-2H-pyrrolo[3,4-b][1,4,5]oxathiazepine-6-carboxamide]	> 25		130
CC1COc2c(cn(C)c2C(=O)Nc2ccc(F)c(F)c2)S(=O)(=O)N1 (single isomer, unassigned) [Compound 14a, N-(3,4-difluorophenyl)-3,7-dimethyl-1,1-dioxo-3,4-dihydro-2H-pyrrolo-[3,4-b][1,4,5]oxathiazepine-6-carboxamide]	> 25	250	
Cn1cc2c(c1C(=O)Nc1ccc(F)c(F)c1)OCC(C1CCOCC1)NS2(=O)=O (single isomer, unassigned) [Compound 89a, N-(3,4-difluorophenyl)-7-methyl-1,1-dioxo-3-tetrahydropyran-4-yl-3,4-dihydro-2H-pyrrolo[3,4-b][1,4,5]oxathiazepine-6-carboxamide]	> 25	190	
C[C@H](O)[C@H]1COc2c(cn(C)c2C(=O)Nc2ccc(F)c(C#N)c2)S(=O)(=O)N1 [Compound 65, (3R)—N-(3-cyano-4-fluoro-phenyl)-3-[(1S)-1-hydroxyethyl]-7-methyl-1,1-dioxo-3,4-dihydro-2H-pyrrolo[3,4-b][1,4,5]oxathiazepine-6-carboxamide]	> 25		7
C[C@@H](N1CC/C=C\c2c(cn(C)c2C(=O)Nc2ccc(F)c(F)c2)S1(=O)=O)C(F)(F)F [Compound 3, (5Z)—N-(3,4-difluorophenyl)-8-methyl-1,1-dioxo-2-[(1R)-2,2,2-trifluoro-1-methyl-ethyl]-3,4-dihydropyrrolo[3,4-g]thiazocine-7-carboxamide]	> 25		> 500
Cn1cc(C2COc3c(cn(C)c3C(=O)Nc3ccc(F)c(F)c3)S(=O)(=O)N2)cn1 (stereo not shown) [Compound 43, N-(3,4-difluorophenyl)-7-methyl-3-(1-methylpyrazol-4-yl)-1,1-dioxo-3,4-dihydro-2H-pyrrolo[3,4-b][1,4,5]oxathiazepine-6-carboxamide]	> 25		56
C[C@H]1C=Cc2c(cn(C)c2C(=O)Nc2ccnc(C(F)(F)F)c2)S(=O)(=O)N1 (single isomer, unassigned) [Compound 42, (3*S)-3,7-dimethyl-1,1-dioxo-N-[2-(trifluoromethyl)-4-pyridyl]-2,3-dihydropyrrolo[3,4-f]thiazepine-6-carboxamide]	> 25		81
Cn1cc2c(c1C(=O)Nc1ccnc(C(F)F)c1)OC[C@H](C(C)(C)O)NS2(=O)=O [Compound 151, (3R)—N-[2-(difluoromethyl)-4-pyridyl]-3-(1-hydroxy-1-methyl-ethyl)-7-methyl-1,1-dioxo-3,4-dihydro-2H-pyrrolo[3,4-b][1,4,5]oxathiazepine-6-carboxamide]	> 25		76
CC(NCC(F)(F)F)C1COc2c(cn(C)c2C(=O)Nc2ccc(F)c(C#N)c2)S(=O)(=O)N1 (single isomer, unassigned) [Compound 161a, N-(3-cyano-4-fluoro-phenyl)-7-methyl-1,1-dioxo-3-[1-(2,2,2-trifluoroethylamino)ethyl]-3,4-dihydro-2H-pyrrolo[3,4-b][1,4,5]oxathiazepine-6-carboxamide]	> 25	49	
C[C@H](O)[C@H]1CCc2c(cn(C)c2C(=O)Nc2cc(F)c(F)c(F)c2)S(=O)(=O)N1 [Compound 104, (3R)-3-[(1S)-1-hydroxyethyl]-7-methyl-1,1-dioxo-N-(3,4,5-trifluorophenyl)-2,3,4,5-tetrahydropyrrolo[3,4-f]thiazepine-6-carboxamide]	> 25		7
C[C@H](O)[C@H]1CCc2c(cn(C)c2C(=O)Nc2ccc(F)c(C#N)c2F)S(=O)(=O)N1 [Compound 159, (3R)—N-(3-cyano-2,4-difluoro-phenyl)-3-[(1S)-1-hydroxyethyl]-7-methyl-1,1-dioxo-2,3,4,5-tetrahydropyrrolo[3,4-f]thiazepine-6-carboxamide]	> 25		14
Cn1cc2c(c1C(=O)Nc1ccnc(Cl)c1)OCC(C)(CO)NS2(=O)=O (single isomer, unassigned) [Compound 204a, N-(2-chloro-4-pyridyl)-3-(hydroxymethyl)-3,7-dimethyl-1,1-dioxo-2,4-dihydropyrrolo[3,4-b][1,4,5]oxathiazepine-6-carboxamide]	> 25		> 125
C=C1c2c(cn(C)c2C(=O)Nc2ccc(F)c(F)c2)S(=O)(=O)NC1C(C)C (stereo not shown) [compound 237]	> 25		> 500
C[C@H](O)[C@H]1COc2c(cn(C)c2C(=O)Nc2ccnc(Br)c2)S(=O)(=O)N1 [Compound 66, (3R)—N-(2-bromo-4-pyridyl)-3-[(1S)-1-hydroxyethyl]-7-methyl-1,1-dioxo-3,4-dihydro-2H-pyrrolo[3,4-b][1,4,5]oxathiazepine-6-carboxamide]	> 25		47
Cn1cc2c(c1C(=O)Nc1ccc(F)c(C#N)c1)OC[C@H](Cc1cccnc1)NS2(=O)=O [Compound 71, (3S)—N-(3-cyano-4-fluoro-phenyl)-7-methyl-1,1-dioxo-3-(3-pyridylmethyl)-3,4-dihydro-2H-pyrrolo[3,4-b][1,4,5]oxathiazepine-6-carboxamide]	> 25		3
Cc1cc(CC2(C)COc3c(cn(C)c3C(=O)Nc3ccc(F)c(F)c3)S(=O)(=O)N2)n(C)n1 (single isomer, unassigned) [Compound 175a, N-(3,4-difluorophenyl)-3-[(2,5-dimethylpyrazol-3-yl)methyl]-3,7-dimethyl-1,1-dioxo-2,4-dihydropyrrolo[3,4-b][1,4,5]oxathiazepine-6-carboxamide]	> 22.9	21	
Cn1cc2c(c1C(=O)Nc1ccc(F)c(F)c1)OCC(C)(c1ncco1)NS2(=O)=O (racemic) [Compound 160, N-(3,4-difluorophenyl)-3,7-dimethyl-3-oxazol-2-yl-1,1-dioxo-2,4-dihydropyrrolo[3,4-b][1,4,5]oxathiazepine-6-carboxamide]	> 25		14.5
Cc1cc(CC2(C)COc3c(cn(C)c3C(=O)Nc3ccnc(C(F)F)c3)S(=O)(=O)N2)no1 (single isomer, unassigned) [Compound 209a, N-[2-(difluoromethyl)-4-pyridyl]-3,7-dimethyl-3-[(5-methylisoxazol-3-yl)methyl]-1,1-dioxo-2,4-dihydropyrrolo[3,4-b][1,4,5]oxathiazepine-6-carboxamide]	> 25	60	
Cc1cc(NC(=O)c2c3c(cn2C)S(=O)(=O)N[C@@H]([C@H](C)O)CO3)ccc1F [Compound 200, (3R)—N-(4-fluoro-3-methyl-phenyl)-3-[(1S)-1-hydroxyethyl]-7-methyl-1,1-dioxo-3,4-dihydro-2H-pyrrolo[3,4-b][1,4,5]oxathiazepine-6-carboxamide]	> 25		84
Cn1cc2c(c1C(=O)Nc1ccc(F)c(C#N)c1)CCC(C(F)(F)F)NS2(=O)=O (single isomer, unassigned) [Compound 60a, N-(3-cyano-4-fluoro-phenyl)-7-methyl-1,1-dioxo-3-(trifluoromethyl)-2,3,4,5-tetrahydropyrrolo[3,4-f]thiazepine-6-carboxamide]	> 25	55	
CCC1Cc2c(cn(C)c2C(=O)Nc2ccc(F)c(F)c2)S(=O)(=O)N1 (stereo not shown) [Compound 17, N-(3,4-difluorophenyl)-3-ethyl-6-methyl-1,1-dioxo-3,4-dihydro-2H-pyrrolo[3,4-e]thiazine-5-carboxamide]	> 25		< 98
Cn1cc2c(c1C(=O)Nc1ccc(F)c(F)c1)CCC(CO)(CO)NS2(=O)=O [Compound 201, N-(3,4-difluorophenyl)-3,3-bis(hydroxymethyl)-7-methyl-1,1-dioxo-4,5-dihydro-2H-pyrrolo[3,4-f]thiazepine-6-carboxamide]	> 25		110
CC(NCC(F)(F)F)C1CCc2c(cn(C)c2C(=O)Nc2cc(F)c(F)c(F)c2)S(=O)(=O)N1 (single isomer, unassigned) [Compound 218c, 7-methyl-1,1-dioxo-3-[1-(2,2,2-trifluoroethylamino)ethyl]-N-(3,4,5-trifluorophenyl)-2,3,4,5-tetrahydropyrrolo[3,4-f]thiazepine-6-carboxamide]	> 25	6	
C[C@H]1CCc2c(cn(C)c2C(=O)Nc2cc(F)c(F)c(F)c2)S(=O)(=O)N1 (single isomer, unassigned) [Compound 39, (3*S)-3,7-dimethyl-1,1-dioxo-N-(3,4,5-trifluorophenyl)-2,3,4,5-tetrahydropyrrolo[3,4-f]thiazepine-6-carboxamide]	> 25		3

Reference: US10875876B2, “Cyclized sulfamoylarylamide derivatives and the use thereof as medicaments for the treatment of hepatitis B” (priority 2015, dated 2020)
